These results are taken from patent US7517874B2 (priority 2007, dated 2009).

For series [1], the target named is human CB1 receptor (hCB1) (Homo sapiens, UniProt P21554). Nature of the series: cell-based. Type of series: cell-based. In short, it runs like this:
(§1)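 Readout: LANCE TR-FRET cAMP, back-calculated from a concurrent standard curve and scaled between forskolin-only and forskolin + 1 μM CP55,940 wells. EC50 and intrinsic activity came from four-parameter fits.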

In series [2] the target is T1, rat CB2 receptor (rCB2) (Rattus norvegicus, UniProt Q9QZN9).
T1 sequence (Q9QZN9 1-360): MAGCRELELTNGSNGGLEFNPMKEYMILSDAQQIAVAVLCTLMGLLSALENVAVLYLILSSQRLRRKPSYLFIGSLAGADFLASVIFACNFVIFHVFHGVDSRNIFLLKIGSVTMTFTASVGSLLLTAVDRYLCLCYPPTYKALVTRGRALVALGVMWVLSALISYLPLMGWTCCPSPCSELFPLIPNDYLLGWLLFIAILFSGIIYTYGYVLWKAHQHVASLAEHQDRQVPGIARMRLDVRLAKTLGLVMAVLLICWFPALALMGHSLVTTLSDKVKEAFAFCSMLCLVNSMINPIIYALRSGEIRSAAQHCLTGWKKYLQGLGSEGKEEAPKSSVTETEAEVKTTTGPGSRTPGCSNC
As to the kind of experiment: cell-based. In kind it is cell-based. The conditions noted are these: agonist or inverse agonist at rCB2. The essentials:
as §1

The test system of series [3] is rats. Nature of the series: Spinal nerve ligation (SNL) model of neuropathic pain. As to conditions: rat, oral 3, 10 and 30 mg/kg, FIG. 4. In kind it is in vivo. On the procedure: The SNL model (Kim and Chung 1992) was used to induce chronic neuropathic pain in rats. The rats were anesthetized with isoflurane, the left L5 transverse process was removed, and the L5 and L6 spinal nerves were tightly ligated with 6-0 silk suture. The wound was then closed with internal sutures and external staples. Following at least seven days post SNL, baseline, post-injury and post-treatment values for non-noxious mechanical sensitivity were evaluated using eight Semmes-Weinstein filaments (Stoelting, Wood Dale, Ill., USA) with varying stiffness (0.4, 0.7, 1.2, 2.0, 3.6, 5.5, 8.5, and 15 g) according to the up-down method (Chaplan et al. 1994). Animals were placed on a perforated metallic platform and allowed to acclimate to their surroundings for a minimum of thirty minutes before testing. The mean and standard error of the mean (SEM) were determined for the injured paw in each treatment group. Since this stimulus is normally not considered painful, significant injury-induced increases in responsiveness in this test are interpreted as a measure of mechanical allodynia. The dose which elicited 50% attenuation of mechanical hypersensitivity (ED50) was determined using linear regression analysis. Results obtained after oral administration of compound 317 at 3, 10 and 30 mg/kg and with compound 366 at 1, 3 and 10 mg/kg are shown in FIG. 4.

Series [4] has as its system Male Sprague-Dawley rats. Nature of the series: Complete Freund's Adjuvant (CFA) model of inflammatory pain, Randall-Selitto paw pressure. Type of series: in vivo. The conditions noted are these: rat, intraperitoneal. Here is the method:
Male Sprague-Dawley rats (Hsd:Sprague-Dawley®™SD®™, Harlan, Indianapolis, Ind.) weighing 201±1 grams, were housed three per cage. Animals had free access to food and water and were maintained on a twelve hour light/dark schedule for the entire duration of the experiment. Approximately 12 hours prior to behavioral testing, animals were placed on wire mesh bottom cages with free access to water but no access to food. Test compounds were prepared in 50% PEG-400 (Sigma-Aldrich, cat. P3265). Indomethacin (Fluka, cat 57413) was suspended in 0.5% methylcellulose (Sigma-Aldrich, cat. 274429). Groups of eight animals were anesthetized with 2-3% isoflurane and local inflammation induced by 50 μl CFA (Sigma-Aldrich, cat F5881, Mycobacterium tuberculosis 1 mg/ml) injected subcutaneously into the plantar surface of the left paw.
Assessment of mechanical hyperalgesia: Baseline and post-treatment withdrawal thresholds to a noxious mechanical stimulus were measured using the Randall-Selitto paw pressure apparatus (Ugo Basile Analgesymeter, model 7200). […] Mechanical hyperalgesia was measured using the Randall-Selitto paw pressure device before CFA injection and after intraperitoneal (i.p.) compound administration over a twenty-four-hour period. The mean and standard error of the mean (SEM) were determined for the injured and normal paws for each treatment group.

human CB1 receptor (hCB1), sequence (P21554 whole entry): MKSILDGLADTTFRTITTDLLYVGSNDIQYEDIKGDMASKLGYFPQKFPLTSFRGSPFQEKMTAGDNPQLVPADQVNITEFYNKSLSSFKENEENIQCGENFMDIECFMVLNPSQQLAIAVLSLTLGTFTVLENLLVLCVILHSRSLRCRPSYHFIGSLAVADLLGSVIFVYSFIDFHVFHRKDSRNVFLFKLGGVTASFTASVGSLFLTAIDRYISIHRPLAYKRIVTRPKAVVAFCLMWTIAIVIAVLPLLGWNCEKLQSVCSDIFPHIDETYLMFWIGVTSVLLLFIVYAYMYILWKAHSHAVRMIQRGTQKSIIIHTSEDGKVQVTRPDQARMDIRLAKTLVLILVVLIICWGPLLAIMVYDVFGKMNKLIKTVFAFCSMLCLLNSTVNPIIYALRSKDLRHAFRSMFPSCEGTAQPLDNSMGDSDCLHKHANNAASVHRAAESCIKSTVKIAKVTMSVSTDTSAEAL

Consider `CNC(=O)[C@@H](NC(=O)c1nc(-c2ccc(Cl)cc2F)n2c1CN(C)CCC2)C(C)(C)C` [Compound 366, (S)-3-(4-chloro-2-fluorophenyl)-N-(3,3-dimethyl-1-(methylamino)-1-oxobutan-2-yl)-8-methyl-6,7,8,9-tetrahydro-5H-imidazo[1,5-a][1,4]diazepine-1-carboxamide], for which the “+/− HCB1” value in series [1] (agonist or inverse agonist at hCB1) is listed as “+”. The “+/− RCB2” value in series [2] is given as “+”. Further, the “effect in the neuropathic pain model” value in series [3] is reported as “dose response in the neuropathic pain model”.

One may read the EC50 as the concentration giving half of the maximal effect. Low values mean a more potent agent, high ones a less potent agent. In turn, `CNC(=O)[C@@H](NC(=O)c1nc(-c2ccccc2)n2c1CN(C)CCC2)C(C)(C)C` [Compound 317, (S)-N-(3,3-dimethyl-1-(methylamino)-1-oxobutan-2-yl)-8-methyl-3-phenyl-6,7,8,9-tetrahydro-5H-imidazo[1,5-a][1,4]diazepine-1-carboxamide] came in with an EC50 in series [1] above 10 µM. For the same compound, the “+/− RCB2” value in series [2] is “+”. Also, the “effect in the neuropathic pain model” value in series [3] is “dose response in the neuropathic pain model”.

In the case of `CCS(=O)(=O)N1CCn2c(-c3ccccc3)nc(C(=O)N[C@H](C(=O)NC)C(C)(C)C)c2C1` [Compound 91, (S)-N-(3,3-dimethyl-1-(methylamino)-1-oxobutan-2-yl)-7-(ethylsulfonyl)-3-phenyl-5,6,7,8-tetrahydroimidazo[1,5-a]pyrazine-1-carboxamide], the concentration for a half-maximal effect (EC50) in series [1] is above 10 µM. Moreover, in series [2], the “+/− RCB2” value is “−”. In series [4], the “side effects during the experiment” value is recorded as “No side effects were observed”.

In turn, `C=C(C)c1nc(C(=O)N[C@H](C(=O)NC)C(C)(C)C)c2n1CCN(C)C2` [Compound 267, (S)-N-(3,3-dimethyl-1-(methylamino)-1-oxobutan-2-yl)-7-methyl-3-(prop-1-en-2-yl)-5,6,7,8-tetrahydroimidazo[1,5-a]pyrazine-1-carboxamide] gave a concentration giving a half-maximal response (EC50) in series [1] above 10 µM. In series [2], the “+/− RCB2” value was “+”.
